Results taken from article PMC11864979, “First-in-class ultralong-target-residence-time p38α inhibitors as a mitosis-targeted therapy for colorectal cancer” (Nature Cancer, 2025).
Like-named read-outs stand apart in the source and are kept apart here.

Legend:
Assay in all cases: selectivity profiling in a panel of 340 wild-type kinases (Reaction Biology Europe)
Format in all cases: binding
340 wild-type kinases [1] = target: T1, 340 wild-type kinases (Homo sapiens, UniProt Q9P286)
T1 construct: purchased Reaction Biology Europe
T1 sequence (Q9P286 whole entry): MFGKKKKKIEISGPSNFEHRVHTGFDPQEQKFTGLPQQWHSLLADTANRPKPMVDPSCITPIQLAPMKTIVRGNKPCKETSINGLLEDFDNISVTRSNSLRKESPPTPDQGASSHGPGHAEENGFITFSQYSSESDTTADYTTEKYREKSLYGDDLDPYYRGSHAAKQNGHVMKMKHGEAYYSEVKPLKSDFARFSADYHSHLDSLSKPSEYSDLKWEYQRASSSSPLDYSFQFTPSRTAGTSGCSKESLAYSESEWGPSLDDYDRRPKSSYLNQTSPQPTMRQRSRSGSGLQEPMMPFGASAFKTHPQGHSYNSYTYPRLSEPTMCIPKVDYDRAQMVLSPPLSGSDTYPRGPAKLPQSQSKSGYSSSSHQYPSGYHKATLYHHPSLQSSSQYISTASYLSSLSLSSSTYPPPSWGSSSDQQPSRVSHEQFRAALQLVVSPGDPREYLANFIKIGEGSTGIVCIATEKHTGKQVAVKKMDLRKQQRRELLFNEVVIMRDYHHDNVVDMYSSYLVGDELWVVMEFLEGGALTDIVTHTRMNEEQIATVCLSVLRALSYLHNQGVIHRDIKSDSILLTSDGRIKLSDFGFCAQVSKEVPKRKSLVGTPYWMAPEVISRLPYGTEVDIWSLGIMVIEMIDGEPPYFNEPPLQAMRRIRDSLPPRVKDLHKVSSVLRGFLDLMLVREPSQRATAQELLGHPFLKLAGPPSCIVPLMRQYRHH

340 wild-type kinases [2] = target: T2, 340 wild-type kinases (Homo sapiens, UniProt Q9UEW8)
T2 construct: purchased Reaction Biology Europe

340 wild-type kinases [3] = target: T3, 340 wild-type kinases (Homo sapiens, UniProt Q9NWZ3)
T3 construct: purchased Reaction Biology Europe
T3 sequence (Q9NWZ3 1-460): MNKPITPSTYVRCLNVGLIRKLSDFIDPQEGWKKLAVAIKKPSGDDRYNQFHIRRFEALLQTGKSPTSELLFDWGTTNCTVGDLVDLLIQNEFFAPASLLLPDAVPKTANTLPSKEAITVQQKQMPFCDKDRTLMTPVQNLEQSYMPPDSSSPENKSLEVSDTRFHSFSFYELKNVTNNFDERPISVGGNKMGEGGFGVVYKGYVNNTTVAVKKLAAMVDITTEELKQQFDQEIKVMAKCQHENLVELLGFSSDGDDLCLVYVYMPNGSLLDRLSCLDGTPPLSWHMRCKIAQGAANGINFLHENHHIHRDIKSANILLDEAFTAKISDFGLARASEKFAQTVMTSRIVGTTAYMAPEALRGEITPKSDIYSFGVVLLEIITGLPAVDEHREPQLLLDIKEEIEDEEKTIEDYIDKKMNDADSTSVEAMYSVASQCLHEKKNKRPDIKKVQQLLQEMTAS

340 wild-type kinases [4] = target: T4, 340 wild-type kinases (Homo sapiens, UniProt P16591)
T4 construct: purchased Reaction Biology Europe
T4 sequence (P16591 whole entry): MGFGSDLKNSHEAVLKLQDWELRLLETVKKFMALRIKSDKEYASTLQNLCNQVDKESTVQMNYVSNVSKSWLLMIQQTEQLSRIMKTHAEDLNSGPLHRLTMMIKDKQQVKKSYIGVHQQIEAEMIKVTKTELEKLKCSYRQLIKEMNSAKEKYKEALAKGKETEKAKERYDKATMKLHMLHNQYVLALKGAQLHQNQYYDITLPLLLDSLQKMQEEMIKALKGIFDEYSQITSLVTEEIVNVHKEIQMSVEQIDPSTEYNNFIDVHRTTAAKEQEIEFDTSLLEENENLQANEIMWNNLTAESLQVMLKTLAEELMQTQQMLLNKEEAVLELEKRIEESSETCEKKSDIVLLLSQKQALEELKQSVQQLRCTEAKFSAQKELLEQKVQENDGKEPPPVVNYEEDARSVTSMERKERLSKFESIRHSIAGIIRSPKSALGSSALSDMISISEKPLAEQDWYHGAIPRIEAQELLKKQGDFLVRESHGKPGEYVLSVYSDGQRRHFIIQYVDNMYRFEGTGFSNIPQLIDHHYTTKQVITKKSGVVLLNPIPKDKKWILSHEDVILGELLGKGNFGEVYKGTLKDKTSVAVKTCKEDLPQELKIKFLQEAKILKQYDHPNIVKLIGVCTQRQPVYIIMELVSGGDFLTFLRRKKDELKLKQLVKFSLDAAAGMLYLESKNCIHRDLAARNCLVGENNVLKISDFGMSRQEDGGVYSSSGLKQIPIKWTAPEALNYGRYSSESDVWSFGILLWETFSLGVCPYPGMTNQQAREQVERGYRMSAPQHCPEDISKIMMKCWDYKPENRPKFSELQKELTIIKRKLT

340 wild-type kinases [5] = target: T5, 340 wild-type kinases (Homo sapiens, UniProt O00506)
T5 construct: purchased Reaction Biology Europe
T5 sequence (O00506 whole entry): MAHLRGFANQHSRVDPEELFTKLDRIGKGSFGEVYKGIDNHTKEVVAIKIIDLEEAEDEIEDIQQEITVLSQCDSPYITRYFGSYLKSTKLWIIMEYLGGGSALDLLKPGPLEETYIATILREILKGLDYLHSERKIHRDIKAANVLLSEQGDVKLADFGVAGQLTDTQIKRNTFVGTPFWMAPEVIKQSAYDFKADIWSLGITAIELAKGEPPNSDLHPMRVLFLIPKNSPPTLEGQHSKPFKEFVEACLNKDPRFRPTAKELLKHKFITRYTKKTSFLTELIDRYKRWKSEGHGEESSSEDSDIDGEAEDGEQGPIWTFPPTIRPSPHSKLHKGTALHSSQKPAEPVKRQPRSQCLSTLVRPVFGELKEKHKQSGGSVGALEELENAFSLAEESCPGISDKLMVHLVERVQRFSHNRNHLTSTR

340 wild-type kinases [6] = target: T6, 340 wild-type kinases (Homo sapiens, UniProt Q9H2K8)
T6 construct: purchased Reaction Biology Europe
T6 sequence (Q9H2K8 1-898): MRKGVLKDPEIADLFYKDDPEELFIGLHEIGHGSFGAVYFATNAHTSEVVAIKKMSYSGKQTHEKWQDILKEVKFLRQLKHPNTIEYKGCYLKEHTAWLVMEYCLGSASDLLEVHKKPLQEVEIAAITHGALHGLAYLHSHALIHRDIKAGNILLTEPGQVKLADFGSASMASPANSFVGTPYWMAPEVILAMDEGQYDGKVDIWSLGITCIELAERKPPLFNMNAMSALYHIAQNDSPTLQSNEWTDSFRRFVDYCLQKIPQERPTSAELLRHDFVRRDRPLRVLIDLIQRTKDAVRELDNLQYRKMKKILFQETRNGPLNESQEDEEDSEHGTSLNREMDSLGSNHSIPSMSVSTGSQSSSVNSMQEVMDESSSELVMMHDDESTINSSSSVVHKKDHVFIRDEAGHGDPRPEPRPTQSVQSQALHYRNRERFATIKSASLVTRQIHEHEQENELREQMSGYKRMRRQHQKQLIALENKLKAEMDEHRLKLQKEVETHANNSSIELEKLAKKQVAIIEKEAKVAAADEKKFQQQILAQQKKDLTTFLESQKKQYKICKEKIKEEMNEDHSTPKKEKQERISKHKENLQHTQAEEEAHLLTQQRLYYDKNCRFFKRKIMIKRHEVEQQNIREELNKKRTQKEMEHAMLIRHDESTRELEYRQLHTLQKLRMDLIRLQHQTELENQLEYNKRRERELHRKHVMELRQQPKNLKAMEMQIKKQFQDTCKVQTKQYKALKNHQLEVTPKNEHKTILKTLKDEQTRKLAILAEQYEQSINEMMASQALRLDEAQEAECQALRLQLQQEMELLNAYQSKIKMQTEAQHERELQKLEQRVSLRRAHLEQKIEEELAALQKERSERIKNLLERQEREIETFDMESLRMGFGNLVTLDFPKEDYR

340 wild-type kinases [7] = target: T7, 340 wild-type kinases (Homo sapiens, UniProt O14965)
T7 construct: purchased Reaction Biology Europe
T7 sequence (O14965 1-403): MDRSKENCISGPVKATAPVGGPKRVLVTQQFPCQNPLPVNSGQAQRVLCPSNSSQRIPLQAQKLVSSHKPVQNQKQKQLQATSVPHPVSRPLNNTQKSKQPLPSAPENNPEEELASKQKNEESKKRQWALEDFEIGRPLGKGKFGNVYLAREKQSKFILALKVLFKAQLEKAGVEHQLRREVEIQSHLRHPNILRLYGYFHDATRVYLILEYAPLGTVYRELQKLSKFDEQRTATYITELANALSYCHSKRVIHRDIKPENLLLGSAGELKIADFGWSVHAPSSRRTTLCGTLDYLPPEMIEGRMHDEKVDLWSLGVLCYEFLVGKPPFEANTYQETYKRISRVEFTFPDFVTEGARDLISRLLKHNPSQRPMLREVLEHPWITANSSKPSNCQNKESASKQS

340 wild-type kinases [8] = target: T8, 340 wild-type kinases (Homo sapiens, UniProt P08922)
T8 construct: purchased Reaction Biology Europe
T8 sequence (P08922 28-2347): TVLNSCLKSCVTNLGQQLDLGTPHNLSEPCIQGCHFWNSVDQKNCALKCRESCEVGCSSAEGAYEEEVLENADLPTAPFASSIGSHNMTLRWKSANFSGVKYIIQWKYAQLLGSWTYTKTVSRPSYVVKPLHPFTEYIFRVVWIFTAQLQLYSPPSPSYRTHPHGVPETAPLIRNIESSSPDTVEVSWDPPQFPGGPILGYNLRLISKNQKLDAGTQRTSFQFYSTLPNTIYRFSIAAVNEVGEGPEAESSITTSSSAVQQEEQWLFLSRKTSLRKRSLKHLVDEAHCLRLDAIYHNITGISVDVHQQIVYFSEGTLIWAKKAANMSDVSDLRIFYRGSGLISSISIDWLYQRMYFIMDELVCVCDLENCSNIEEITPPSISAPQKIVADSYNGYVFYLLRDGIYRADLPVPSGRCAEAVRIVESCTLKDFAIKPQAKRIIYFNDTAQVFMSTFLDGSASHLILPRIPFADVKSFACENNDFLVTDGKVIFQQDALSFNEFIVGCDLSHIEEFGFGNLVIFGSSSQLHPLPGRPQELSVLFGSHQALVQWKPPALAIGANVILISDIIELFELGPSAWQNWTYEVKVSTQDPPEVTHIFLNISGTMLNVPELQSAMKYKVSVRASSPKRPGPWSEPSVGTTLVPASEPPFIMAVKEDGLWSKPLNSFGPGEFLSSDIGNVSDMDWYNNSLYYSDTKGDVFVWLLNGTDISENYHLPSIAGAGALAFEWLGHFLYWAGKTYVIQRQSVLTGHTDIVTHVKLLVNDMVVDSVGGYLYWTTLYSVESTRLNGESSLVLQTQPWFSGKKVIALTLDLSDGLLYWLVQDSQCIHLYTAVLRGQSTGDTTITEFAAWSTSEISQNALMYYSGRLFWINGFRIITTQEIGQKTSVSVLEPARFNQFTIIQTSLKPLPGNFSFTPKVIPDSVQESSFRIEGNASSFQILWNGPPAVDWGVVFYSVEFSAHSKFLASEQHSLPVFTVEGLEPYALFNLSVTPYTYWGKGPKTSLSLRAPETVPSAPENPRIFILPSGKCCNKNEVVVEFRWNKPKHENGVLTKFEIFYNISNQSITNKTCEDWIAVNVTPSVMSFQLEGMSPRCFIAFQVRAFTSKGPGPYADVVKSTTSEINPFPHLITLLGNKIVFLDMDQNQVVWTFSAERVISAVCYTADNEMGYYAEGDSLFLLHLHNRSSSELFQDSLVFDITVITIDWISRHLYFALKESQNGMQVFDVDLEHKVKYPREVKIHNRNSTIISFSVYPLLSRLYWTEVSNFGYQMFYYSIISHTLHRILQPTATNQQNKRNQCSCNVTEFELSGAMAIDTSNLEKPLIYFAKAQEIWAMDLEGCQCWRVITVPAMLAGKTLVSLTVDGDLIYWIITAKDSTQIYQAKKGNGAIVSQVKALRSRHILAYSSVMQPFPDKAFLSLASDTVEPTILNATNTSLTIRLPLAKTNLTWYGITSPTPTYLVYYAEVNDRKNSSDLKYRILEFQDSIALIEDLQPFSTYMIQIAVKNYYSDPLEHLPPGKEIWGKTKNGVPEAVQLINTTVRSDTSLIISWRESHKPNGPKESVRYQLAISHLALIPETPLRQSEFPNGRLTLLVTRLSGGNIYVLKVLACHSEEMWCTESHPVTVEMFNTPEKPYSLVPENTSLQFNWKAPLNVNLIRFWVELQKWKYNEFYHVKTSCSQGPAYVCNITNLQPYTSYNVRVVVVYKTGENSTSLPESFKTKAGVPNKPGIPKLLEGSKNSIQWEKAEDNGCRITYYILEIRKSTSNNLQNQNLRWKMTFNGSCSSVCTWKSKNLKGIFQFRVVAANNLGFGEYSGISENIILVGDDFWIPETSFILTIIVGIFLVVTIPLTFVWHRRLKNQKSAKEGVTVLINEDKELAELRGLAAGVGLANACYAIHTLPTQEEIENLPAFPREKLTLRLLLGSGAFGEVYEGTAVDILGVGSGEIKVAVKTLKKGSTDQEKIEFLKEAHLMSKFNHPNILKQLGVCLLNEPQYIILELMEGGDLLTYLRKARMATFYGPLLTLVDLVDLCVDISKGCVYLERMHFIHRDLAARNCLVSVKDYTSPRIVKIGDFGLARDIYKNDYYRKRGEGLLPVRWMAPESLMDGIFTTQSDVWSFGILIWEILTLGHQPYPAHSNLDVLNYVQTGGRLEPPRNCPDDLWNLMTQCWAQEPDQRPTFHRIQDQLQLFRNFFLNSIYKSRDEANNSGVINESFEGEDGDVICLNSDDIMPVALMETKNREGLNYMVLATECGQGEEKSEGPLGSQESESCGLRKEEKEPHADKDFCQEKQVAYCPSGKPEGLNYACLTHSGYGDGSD

CNC(=O)c1ccc2c(c1)C(=O)c1ccc(Nc3ccc(F)c(NC(=O)C4CC4)c3)cc1CC2 [Compound 2015]
remaining activity at 0.2 µM (340 wild-type kinases [1]; 0.2 µM 2015, read-out: PAK7 residual activity): 97.1%
remaining activity at 1 µM (340 wild-type kinases [1]; 1 µM 2015, read-out: PAK7 residual activity): 84.3%
remaining activity at 0.2 µM (340 wild-type kinases [1]; PAK7, 0.2 µM, read-out: residual activity): 97.1%
remaining activity at 1 µM (340 wild-type kinases [1]; PAK7, 1 µM, read-out: residual activity): 84.3%
remaining activity at 0.2 µM (340 wild-type kinases [2]; 0.2 µM 2015, read-out: STK39 residual activity): 109%
remaining activity at 1 µM (340 wild-type kinases [2]; 1 µM 2015, read-out: STK39 residual activity): 108%
remaining activity at 0.2 µM (340 wild-type kinases [2]; STK39, 0.2 µM, read-out: residual activity): 109%
remaining activity at 1 µM (340 wild-type kinases [2]; STK39, 1 µM, read-out: residual activity): 108%
remaining activity at 0.2 µM (340 wild-type kinases [3]; 0.2 µM 2015, read-out: IRAK4 residual activity): 96.5%
remaining activity at 1 µM (340 wild-type kinases [3]; 1 µM 2015, read-out: IRAK4 residual activity): 93.5%
remaining activity at 0.2 µM (340 wild-type kinases [3]; IRAK4, 0.2 µM, read-out: residual activity): 96.5%
remaining activity at 1 µM (340 wild-type kinases [3]; IRAK4, 1 µM, read-out: residual activity): 93.5%
remaining activity at 0.2 µM (340 wild-type kinases [4]; 0.2 µM 2015, read-out: FER residual activity): 125%
remaining activity at 1 µM (340 wild-type kinases [4]; 1 µM 2015, read-out: FER residual activity): 102%
remaining activity at 0.2 µM (340 wild-type kinases [4]; FER, 0.2 µM, read-out: residual activity): 125%
remaining activity at 1 µM (340 wild-type kinases [4]; FER, 1 µM, read-out: residual activity): 102%
remaining activity at 0.2 µM (340 wild-type kinases [5]; 0.2 µM 2015, read-out: STK25 residual activity): 88.2%
remaining activity at 1 µM (340 wild-type kinases [5]; 1 µM 2015, read-out: STK25 residual activity): 83.6%
remaining activity at 0.2 µM (340 wild-type kinases [5]; STK25, 0.2 µM, read-out: residual activity): 88.2%
remaining activity at 1 µM (340 wild-type kinases [5]; STK25, 1 µM, read-out: residual activity): 83.6%
remaining activity at 0.2 µM (340 wild-type kinases [6]; 0.2 µM 2015, read-out: TAOK3 residual activity): 101%
remaining activity at 1 µM (340 wild-type kinases [6]; 1 µM 2015, read-out: TAOK3 residual activity): 98.6%
remaining activity at 0.2 µM (340 wild-type kinases [6]; TAOK3, 0.2 µM, read-out: residual activity): 101%
remaining activity at 1 µM (340 wild-type kinases [6]; TAOK3, 1 µM, read-out: residual activity): 98.6%
remaining activity at 0.2 µM (340 wild-type kinases [7]; 0.2 µM 2015, read-out: AuroraA residual activity): 98.6%
remaining activity at 1 µM (340 wild-type kinases [7]; 1 µM 2015, read-out: AuroraA residual activity): 103%
remaining activity at 0.2 µM (340 wild-type kinases [7]; AuroraA, 0.2 µM, read-out: residual activity): 98.5%
remaining activity at 1 µM (340 wild-type kinases [7]; AuroraA, 1 µM, read-out: residual activity): 103%
remaining activity at 0.2 µM (340 wild-type kinases [8]; 0.2 µM 2015, read-out: ROS residual activity): 114%
remaining activity at 1 µM (340 wild-type kinases [8]; 1 µM 2015, read-out: ROS residual activity): 94.6%
remaining activity at 0.2 µM (340 wild-type kinases [8]; ROS, 0.2 µM, read-out: residual activity): 114%
remaining activity at 1 µM (340 wild-type kinases [8]; ROS, 1 µM, read-out: residual activity): 94.6%
